Results on 29 compounds are retold here after patent US11459329B2, “Imidazopyridazine and imidazopyridine compounds and uses thereof” (Incyte Corporation, priority 2018, dated 2022).

Each structure is given as a SMILES string.

For one experiment, the target named is ALK2 (aa 147-end) (Homo sapiens (Human), UniProt Q04771). Description: ALK2 HTRF Assay. It counts as biochemical.
Chain of ALK2 (aa 147-end) (Q04771 147-509): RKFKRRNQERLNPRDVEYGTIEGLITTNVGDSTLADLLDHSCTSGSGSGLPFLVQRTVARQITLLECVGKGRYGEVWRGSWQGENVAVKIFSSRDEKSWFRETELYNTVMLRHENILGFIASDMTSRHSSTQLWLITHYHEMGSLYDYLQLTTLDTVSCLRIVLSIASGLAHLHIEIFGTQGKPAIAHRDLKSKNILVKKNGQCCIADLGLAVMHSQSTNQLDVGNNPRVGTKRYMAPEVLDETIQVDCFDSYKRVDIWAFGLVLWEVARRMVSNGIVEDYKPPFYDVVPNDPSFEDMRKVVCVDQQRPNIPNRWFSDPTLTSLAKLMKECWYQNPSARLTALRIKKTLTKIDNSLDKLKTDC
Conditions: not given
The method, then:
The enzymatic assays were conducted in white 384-well polystyrene plates in a final volume of 8 μL. The inhibitors were serially diluted in DMSO and added to the plate wells prior to addition of the other reaction components. The assays were carried out at 25° C. in the assay buffer (50 mM HEPES, pH 7.0, 10% Glycerol, 0.01% Brij50, 10 mM MgCl2, 1 mM EGTA, 5 mM DTT, and 0.01% BSA), containing 50 nM LANCE Ultra ULight™-DNA Topoisomerase 2-alpha peptide (Perkin Elmer TRF0130), and 3 μM ATP. The final concentration of DMSO in the assay was 1% and the enzyme concentration was 0.5 nM for ALK2. […] […] IC50 determination was performed by fitting percent control activity versus the log of the inhibitor concentration using the IDBS XLFit and GraphPad Prism 5.0 software.
For orientation: TR-FRET usually uses a lanthanide donor and a delayed reading to cut background.
`COCc1nn2c(-c3ccnc4ccccc34)cnc2cc1-c1ccc(N2CCNCC2)cc1` [Example 8, 4-(6-(Methoxymethyl)-7-(4-(piperazin-1-yl)phenyl)imidazo[1,2-b]pyridazin-3-yl)quinoline] came in with an IC50 of 1 to 5 nM.

`Cc1nn2c(-c3ccnc4cc(C#N)ccc34)cnc2cc1-c1ccc(N2CCNCC2)cc1` [Example 30, 4-(6-methyl-7-(4-(piperazin-1-yl)phenyl)imidazo[1,2-b]pyridazin-3-yl)quinoline-7-carbonitrile] had a half-inhibitory concentration (IC50) of 5 to 100 nM.

Regarding `Cc1nn2c(-c3ccnc4cc(N5CCOCC5)ccc34)cnc2cc1-c1ccc(N2CCNCC2)cc1` [Example 20, 4-(4-(6-methyl-7-(4-(piperazin-1-yl)phenyl)imidazo[1,2-b]pyridazin-3-yl)quinolin-7-yl)morpholine], the IC50 lay in the range of 1 to 5 nM.

Still in this experiment, the particulars now being: 3 μM ATP, 0.5 nM ALK2, 2 hr, 25° C.; read-out: ALK2 IC50.
For `CCn1cnc(-c2ccc3c(-c4cnc5cc(-c6ccc(CN7CCOCC7)cc6)c(C)nn45)ccnc3n2)c1` [Example 53, 4-(4-(3-(7-(1-Ethyl-1H-imidazol-4-yl)-1,8-naphthyridin-4-yl)-6-methylimidazo[1,2-b]pyridazin-7-yl)benzyl)morpholine], the IC50 lay within 1 to 5 nM.

As to `Cc1nn2c(-c3ccnc4cc(-c5ccncc5)ccc34)cnc2cc1-c1ccc(CN2CCC[C@H]2C)c(F)c1` [Example 15, (R)-4-(7-(3-fluoro-4-((2-methylpyrrolidin-1-yl)methyl)phenyl)-6-methylimidazo[1,2-b]pyridazin-3-yl)-7-(pyridin-4-yl)quinoline], the half-inhibitory concentration (IC50) lay within 1 to 5 nM.

Consider `Cc1nn2c(-c3ccnc4cc(-c5ccncc5)ccc34)cnc2cc1-c1ccc(C(=O)N2CCN(C)CC2)cc1` [Example 14, (4-(6-Methyl-3-(7-(pyridin-4-yl)quinolin-4-yl)imidazo[1,2-b]pyridazin-7-yl)phenyl)(4-methylpiperazin-1-yl)methanone], for which the IC50 was in the range of 1 to 5 nM.

For the compound `Cc1nn2c(-c3ccnc4cc(Nc5cccnc5)ccc34)cnc2cc1-c1ccc(N2CCNCC2)cc1` [Example 22, 4-(6-methyl-7-(4-(piperazin-1-yl)phenyl)imidazo[1,2-b]pyridazin-3-yl)-N-(pyridin-3-yl)quinolin-7-amine], the IC50 was less than 1 nM.

In the case of `Cc1cnn(-c2ccc3c(-c4cnc5cc(-c6cnn(C(C)C)c6)c(C)nn45)ccnc3n2)n1` [Example 61, 5-(7-(1-Isopropyl-1H-pyrazol-4-yl)-6-methylimidazo[1,2-b]pyridazin-3-yl)-2-(4-methyl-2H-1,2,3-triazol-2-yl)-1,8-naphthyridine], the IC50 lay in the range of 1 to 5 nM.

Take `Cc1cc(-c2ccc3c(-c4cnc5cc(-c6ccc(CN7CCC7)cc6)c(C)nn45)ccnc3n2)n[nH]1` [Example 48, 5-(7-(4-(Azetidin-1-ylmethyl)phenyl)-6-methylimidazo[1,2-b]pyridazin-3-yl)-2-(5-methyl-1H-pyrazol-3-yl)-1,8-naphthyridine]: the IC50 was less than 1 nM.

On to `C[C@]1(O)CC[C@H](NC(=O)c2nn3c(-c4ccnc5ccccc45)cnc3cc2-c2ccc(N3CCNCC3)cc2)CC1` [Example 3, N-((1R,4R)-4-Hydroxy-4-methylcyclohexyl)-7-(4-(piperazin-1-yl)phenyl)-3-(quinolin-4-yl)imidazo[1,2-b]pyridazine-6-carboxamide], for which the 50% inhibitory concentration (IC50) lay in the range of 5 to 100 nM.

For `CCn1cnc(-c2ccc3c(-c4cnc5cc(-c6ccc(CN7CCC(C)(O)CC7)cc6)c(C)nn45)ccnc3n2)c1` [Example 72, 1-(4-(3-(7-(1-Ethyl-1H-imidazol-4-yl)-1,8-naphthyridin-4-yl)-6-methylimidazo[1,2-b]pyridazin-7-yl)benzyl)-4-methylpiperidin-4-ol], the IC50 was less than 1 nM.

With `CC(=O)N1CCN(c2ccc3c(-c4cnc5cc(-c6ccc(N7CCNCC7)cc6)c(C)nn45)ccnc3c2)CC1` [Example 23, 1-(4-(4-(6-methyl-7-(4-(piperazin-1-yl)phenyl)imidazo[1,2-b]pyridazin-3-yl)quinolin-7-yl)piperazin-1-yl)ethan-1-one], the IC50 lay within 5 to 100 nM.

For the compound `CCn1cnc(-c2ccc3c(-c4cnc5cc(-c6ccc(CN7CCC(O)CC7)cc6)c(C)nn45)ccnc3n2)c1` [Example 71, 1-(4-(3-(7-(1-Ethyl-1H-imidazol-4-yl)-1,8-naphthyridin-4-yl)-6-methylimidazo[1,2-b]pyridazin-7-yl)benzyl)piperidin-4-ol], the IC50 was 1 to 5 nM.

`Cc1nn2c(-c3ccnc4cc(N5CC6(CCOC6)C5)ccc34)cnc2cc1-c1ccc(N2CCNCC2)cc1` [Example 21, 2-(4-(6-methyl-7-(4-(piperazin-1-yl)phenyl)imidazo[1,2-b]pyridazin-3-yl)quinolin-7-yl)-6-oxa-2-azaspiro[3.4]octane]: the IC50 lay in the range of 5 to 100 nM.

Regarding `CCn1cc(-c2cc3ncc(-c4ccnc5nc(-c6ccccn6)ccc45)n3nc2C)cn1` [Example 39, 5-(7-(1-Ethyl-1H-pyrazol-4-yl)-6-methylimidazo[1,2-b]pyridazin-3-yl)-2-(pyridin-2-yl)-1,8-naphthyridine], the IC50 fell in the range of 1 to 5 nM.

As for `Cc1nn2c(-c3ccnc4nc(-c5ccccn5)ccc34)cnc2cc1-c1ccc(CN2CCC2)cc1` [Example 38, 5-(7-(4-(Azetidin-1-ylmethyl)phenyl)-6-methylimidazo[1,2-b]pyridazin-3-yl)-2-(pyridin-2-yl)-1,8-naphthyridine], the IC50 was less than 1 nM.

For `COC(=O)c1nn2c(-c3ccnc4ccccc34)cnc2cc1-c1ccc(N2CCNCC2)cc1` [Example 2, Methyl 7-(4-(piperazin-1-yl)phenyl)-3-(quinolin-4-yl)imidazo[1,2-b]pyridazine-6-carboxylate], the half-inhibitory concentration (IC50) was less than 1 nM.

For `Cc1nn2c(-c3ccnc4cc(-c5ccncc5)ccc34)cnc2cc1-c1cnn([C@H]2CC[C@H](O)CC2)c1` [Example 10, (trans)-4-(4-(6-Methyl-3-(7-(pyridin-4-yl)quinolin-4-yl)imidazo[1,2-b]pyridazin-7-yl)-1H-pyrazol-1-yl)cyclohexan-1-ol], the concentration for half-maximal inhibition (IC50) lay within 1 to 5 nM.

With `CCn1cnc(-c2ccc3c(-c4cnc5cc(-c6ccc(CN7CCCC7)cc6)c(C)nn45)ccnc3n2)c1` [Example 52, 2-(1-Ethyl-1H-imidazol-4-yl)-5-(6-methyl-7-(4-(pyrrolidin-1-ylmethyl)phenyl)imidazo[1,2-b]pyridazin-3-yl)-1,8-naphthyridine], the IC50 was less than 1 nM.

As to `Cc1nn2c(-c3ccnc4cc(-c5ccn(C)n5)ccc34)cnc2cc1-c1ccc(N2CCNCC2)cc1` [Example 18, 7-(1-methyl-1H-pyrazol-3-yl)-4-(6-methyl-7-(4-(piperazin-1-yl)phenyl)imidazo[1,2-b]pyridazin-3-yl)quinoline], the half-inhibitory concentration (IC50) was 1 to 5 nM.

Take `Cc1cnn(-c2ccc3c(-c4cnc5cc(-c6ccc(CN(C)C)cc6)c(C)nn45)ccnc3n2)n1` [Example 63, N,N-dimethyl-1-(4-(6-methyl-3-(7-(4-methyl-2H-1,2,3-triazol-2-yl)-1,8-naphthyridin-4-yl)imidazo[1,2-b]pyridazin-7-yl)phenyl)methanamine]: the concentration for half-maximal inhibition (IC50) is 1 to 5 nM.

On to `Cc1cn2c(-c3ccnc4ccccc34)cnc2cc1-c1cnn(C2CCNCC2)c1` [Example 35, 4-(6-methyl-7-(1-(piperidin-4-yl)-1H-pyrazol-4-yl)imidazo[1,2-a]pyridin-3-yl)quinoline], for which the IC50 was in the range of 1 to 5 nM.

In the case of `Cc1nn2c(-c3ccnc4cc(-c5ccnc(CO)c5)ccc34)cnc2cc1-c1ccc(N2CCNCC2)cc1` [Example 19, (4-(4-(6-methyl-7-(4-(piperazin-1-yl)phenyl)imidazo[1,2-b]pyridazin-3-yl)quinolin-7-yl)pyridin-2-yl)methanol], the concentration for half-maximal inhibition (IC50) was 1 to 5 nM.

As for `Cc1cnn(-c2ccc3c(-c4cnc5cc(-c6ccc(CN7CC[C@](C)(O)C7)cc6)c(C)nn45)ccnc3n2)n1` [Example 66, (S)-3-methyl-1-(4-(6-methyl-3-(7-(4-methyl-2H-1,2,3-triazol-2-yl)-1,8-naphthyridin-4-yl)imidazo[1,2-b]pyridazin-7-yl)benzyl)pyrrolidin-3-ol], the concentration for half-maximal inhibition (IC50) is less than 1 nM.

For `Cc1nn2c(-c3ccnc4cc(C(=O)N5CCN(C)CC5)ccc34)cnc2cc1-c1ccc(N2CCNCC2)cc1` [Example 17, (4-(6-methyl-7-(4-(piperazin-1-yl)phenyl)imidazo[1,2-b]pyridazin-3-yl)quinolin-7-yl)(4-methylpiperazin-1-yl)methanone], the 50% inhibitory concentration (IC50) is more than 100 nM.

For `Cc1nn2c(-c3ccnc4nc(-c5ccn(C)n5)ccc34)cnc2cc1-c1ccc(CN2CCC2)cc1` [Example 46, 5-(7-(4-(Azetidin-1-ylmethyl)phenyl)-6-methylimidazo[1,2-b]pyridazin-3-yl)-2-(1-methyl-1H-pyrazol-3-yl)-1,8-naphthyridine], the IC50 was 5 to 100 nM.

On to `Cc1cnn(-c2ccc3c(-c4cnc5cc(-c6ccc(CN(C)C)cc6)c(C)nn45)ccnc3n2)n1` [Example 65, N,N-dimethyl-1-(4-(6-methyl-3-(7-(4-methyl-2H-1,2,3-triazol-2-yl)-1,8-naphthyridin-4-yl)imidazo[1,2-b]pyridazin-7-yl)phenyl)methanamine], for which the IC50 was 1 to 5 nM.

Turning to `Cc1nn2c(-c3ccnc4cc(-c5ccncc5)ccc34)cnc2cc1-c1ccc(N2CCN(C)CC2=O)cc1` [Example 12, 4-Methyl-1-(4-(6-methyl-3-(7-(pyridin-4-yl)quinolin-4-yl)imidazo[1,2-b]pyridazin-7-yl)phenyl)piperazin-2-one], the half-maximal inhibitory concentration (IC50) lay in the range of 5 to 100 nM.

On to `Cc1cc(-c2ccc3c(-c4cnc5cc(-c6cnn(C(C)C)c6)c(C)nn45)ccnc3n2)n[nH]1` [Example 50, 5-(7-(1-Isopropyl-1H-pyrazol-4-yl)-6-methylimidazo[1,2-b]pyridazin-3-yl)-2-(5-methyl-1H-pyrazol-3-yl)-1,8-naphthyridine], for which the IC50 is less than 1 nM.

For orientation: IC50 means the point on the concentration scale where inhibition reaches its midpoint.
